Like-named read-outs stand apart in the source and are kept apart here.
Key:
[1] = 1 μM
Description: Plasma samples (double sample) containing 1 μM of the compounds of the present invention, clopidogrel hydrogen sulfate (LBGL), 2-oxo product (2-Oxo) were prepared from human blank plasma, and incubated at 37° C. 50 μL of the above incubated plasma samples were taken at different time points, and 100 μL of precipitant (acetonitrile:methanol=7:3) and 50 μL of internal standard were added. The mixture was vortexed for 1 min and centrifuged for 10 min. 100 μL of the supernatant was taken into an inner inserted tube, centrifuged for 5 min, and injected for LC-MS/MS analysis.
Preparation of blank control sample (PPT-0): 100 μL of frozen human blank plasma was taken, to which 195 μL of acetonitrile and 100 μL of internal standard were added, followed by 5 μL of the compound of the present invention, clopidogrel or 2-oxo product (20 μM). The mixture was vortexed for 1 min and centrifuged for 10 min. 100 μL of the supernatant was taken into an inner inserted tube, centrifuged for 5 min, and injected for LC-MS/MS analysis.

[2] = Stability of crystalline form A of I-1 (X-ray powder diffraction after high temperature, high humidity, light); type: physicochemical
[3] = system: arteriovenous bypass thrombosis in rats; test: Test of effect of compounds on arteriovenous bypass thrombosis in rats; type: in vivo, SD rats; design: Dry weight of thrombus (%): unit not given here; settings: for Inhibition rate (%): dry weight of thrombus; for Inhibition rate (%) / Dry weight of thrombus (%): rats; for Dry weight of thrombus (%): loop opened 2.5 h after administration, 15 min
Description: Test of Effect of Compounds on Arteriovenous Bypass Thrombosis in Rats
Male SD rats were randomly divided into solvent control group, positive drug control group and test compound group. The solvent control group was administered a corresponding volume of the solvent. […] Rats were anesthetized with 4% chloral hydrate (0.32 g/kg), and fixed on the operating table at the supine position. The right common carotid artery and the left external jugular vein were separated, and was each inserted with a Teflon tube filled with normal saline solution containing heparin (50 U/mL), which were connected through another Teflon tube. A 6 cm long cotton thread was placed at the joints of the two tubes. After 2.5 h of administration, the arteriovenous loop was opened in each group and circulated for 15 min. The blood flow was interrupted, and the cotton thread wrapped with the thrombus was quickly removed and weighed. The weight of the cotton thread was subtracted to obtain the wet weight of the thrombus, and then it was baked in the oven to constant weight and weighed. The weight of the cotton thread was subtracted to obtain the dry weight of the thrombus.

[4] = system: bleeding time of amputated tail in rats; test: Test of hemorrhagic side effects: bleeding time of amputated tail in rats; type: in vivo, SD rats; settings: intragastric, tail cut 1 h after administration, linear equation fitted
Description: Test of Hemorrhagic Side Effects:
1 h after administration, the rats were anesthetized by intraperitoneal injection of 20% urethane (1 g/kg), and the tail was cut off 5 mm from the tip of the tail, which was then placed in a test tube containing 5 ml normal saline at 37° C. The time from tail cut to cease of bleeding was recorded as the bleeding time. The increasing rate of bleeding time in each dose group was calculated, with the bleeding time of the rats in the control group being 100%.

SMILES: C/C=C/C(=O)Oc1cc2c(s1)CCN([C@H](C(=O)OC)c1ccccc1Cl)C2 [Compound I-1, Methyl (S,E)-2-(2-chlorophenyl)-2-(2-(2-butenoyloxy)-6,7-dihydrothieno[3,2-c]pyridin-5(4H)-yl)-acetate]
- 2-Oxo metabolite concentration in human plasma ([1]; 0 min): 0.0412 µM
- 2-Oxo metabolite in human plasma, % ([1]; 0 min): 4.34%
- Concentration of incubated compound in human plasma ([1]; 0 min): 950 nM
- Incubated compound in human plasma, % ([1]; 0 min): 100%
- Generation of 2-oxo (2-Oxo) product in human plasma [1]: rapidly generate 2-oxo products
- 2-Oxo metabolite concentration in human plasma ([1]; 5 min): 0.0807 µM
- 2-Oxo metabolite in human plasma, % ([1]; 5 min): 8.49%
- Concentration of incubated compound in human plasma ([1]; 5 min): 872 nM
- Incubated compound in human plasma, % ([1]; 5 min): 91.7%
- 2-Oxo metabolite concentration in human plasma ([1]; 10 min): 0.143 µM
- 2-Oxo metabolite in human plasma, % ([1]; 10 min): 15.1%
- Concentration of incubated compound in human plasma ([1]; 10 min): 782 nM
- Incubated compound in human plasma, % ([1]; 10 min): 82.3%
- 2-Oxo metabolite concentration in human plasma ([1]; 20 min): 0.195 µM
- 2-Oxo metabolite in human plasma, % ([1]; 20 min): 20.5%
- Concentration of incubated compound in human plasma ([1]; 20 min): 575 nM
- Incubated compound in human plasma, % ([1]; 20 min): 60.5%
- 2-Oxo metabolite concentration in human plasma ([1]; 30 min): 0.198 µM
- 2-Oxo metabolite in human plasma, % ([1]; 30 min): 20.8%
- Concentration of incubated compound in human plasma ([1]; 30 min): 425 nM
- Incubated compound in human plasma, % ([1]; 30 min): 44.7%
- 2-Oxo metabolite concentration in human plasma ([1]; 45 min): 0.167 µM
- 2-Oxo metabolite in human plasma, % ([1]; 45 min): 17.5%
- Concentration of incubated compound in human plasma ([1]; 45 min): 266 nM
- Incubated compound in human plasma, % ([1]; 45 min): 28.0%
- 2-Oxo metabolite concentration in human plasma ([1]; 60 min): 0.130 µM
- 2-Oxo metabolite in human plasma, % ([1]; 60 min): 13.6%
- Concentration of incubated compound in human plasma ([1]; 60 min): 174 nM
- Incubated compound in human plasma, % ([1]; 60 min): 18.3%
- 2-Oxo metabolite concentration in human plasma ([1]; 90 min): 0.0535 µM
- 2-Oxo metabolite in human plasma, % ([1]; 90 min): 5.63%
- Concentration of incubated compound in human plasma ([1]; 90 min): 52.2 nM
- Incubated compound in human plasma, % ([1]; 90 min): 5.49%
- 2-Oxo metabolite concentration in human plasma ([1]; 120 min): 0.0224 µM
- 2-Oxo metabolite in human plasma, % ([1]; 120 min): 2.35%
- Concentration of incubated compound in human plasma ([1]; 120 min): 16.2 nM
- Incubated compound in human plasma, % ([1]; 120 min): 1.70%
- 2-Oxo metabolite concentration in human plasma ([1]; 150 min): 0.00857 µM
- 2-Oxo metabolite in human plasma, % ([1]; 150 min): 0.902%
- Concentration of incubated compound in human plasma ([1]; 150 min): 5.31 nM
- Incubated compound in human plasma, % ([1]; 150 min): 0.558%
- 2-Oxo metabolite concentration in human plasma ([1]; 180 min): 0.00397 µM
- 2-Oxo metabolite in human plasma, % ([1]; 180 min): 0.418%
- Concentration of incubated compound in human plasma ([1]; 180 min): 2.19 nM
- Incubated compound in human plasma, % ([1]; 180 min): 0.231%
- 2-Oxo metabolite concentration in human plasma ([1]; 240 min): 0 µM
- 2-Oxo metabolite in human plasma, % ([1]; 240 min): 0%
- Concentration of incubated compound in human plasma ([1]; 240 min): 0 nM
- Incubated compound in human plasma, % ([1]; 240 min): 0%
- 2-Oxo metabolite concentration in human plasma ([1]; 300 min): 0 µM
- 2-Oxo metabolite in human plasma, % ([1]; 300 min): 0%
- Concentration of incubated compound in human plasma ([1]; 300 min): 0 nM
- Incubated compound in human plasma, % ([1]; 300 min): 0%
- 2-Oxo metabolite concentration in human plasma ([1]; 360 min): 0 µM
- 2-Oxo metabolite in human plasma, % ([1]; 360 min): 0%
- Concentration of incubated compound in human plasma ([1]; 360 min): 0 nM
- Incubated compound in human plasma, % ([1]; 360 min): 0%
- Crystalline form ([2]; crystalline form A of I-1, 0 day): Crystalline form A
- Crystalline form ([2]; crystalline form A of I-1, 5 days, High humidity (RH 92.5%)): Crystalline form A
- Crystalline form ([2]; crystalline form A of I-1, 5 days, High temperature (60° C.)): Crystalline form A
- Crystalline form ([2]; crystalline form A of I-1, 5 days, Light (5000 ± 5000 Lx)): Crystalline form A
- Crystalline form ([2]; crystalline form A of I-1, 10 days, High humidity (RH 92.5%)): Crystalline form A
- Crystalline form ([2]; crystalline form A of I-1, 10 days, High temperature (60° C.)): Crystalline form A
- Crystalline form ([2]; crystalline form A of I-1, 10 days, Light (5000 ± 500 Lx)): Crystalline form A
- Crystalline form ([2]; crystalline form A of I-1, 30 days, High humidity (RH 92.5%)): Crystalline form A
- Crystalline form ([2]; crystalline form A of I-1, 30 days, High temperature (60° C.)): Crystalline form A
- Crystalline form ([2]; crystalline form A of I-1, 30 days, Light (5000 ± 500 Lx)): Crystalline form A
- Change of the crystalline form by X-ray powder diffraction ([2]; crystalline form A of I-1, high temperature, high humidity and light for 5, 10 and 30 days): has not changed
- ED50 ([3]; Rattus norvegicus, po): 7.89 mg/kg
- Inhibition rate (%) ([3]; intragastric 1 mg/kg): 18.3%
- Inhibition rate (%) ([3]; intragastric 3 mg/kg): 43.2%
- Inhibition rate (%) ([3]; intragastric 10 mg/kg): 56.0%
- Inhibition rate (%) ([3]; intragastric 30 mg/kg): 64.2%
- Dry weight of thrombus (%) ([3]; intragastric 1 mg/kg): 8.3 ± 2.7
- Dry weight of thrombus (%) ([3]; intragastric 3 mg/kg): 5.8 ± 1.4
- Dry weight of thrombus (%) ([3]; intragastric 10 mg/kg): 4.5 ± 2.4
- Dry weight of thrombus (%) ([3]; intragastric 30 mg/kg): 3.6 ± 0.5
- ED200 (dose that doubled the bleeding time) [4]: 1.977 mg/kg

Source: patent US11466025B2, “Thienopyridine derivatives containing unsaturated aliphatic olefinic bond, preparation method and use thereof” (Tianjin Institute of Pharmaceutical Research Co., Ltd., priority 2017, dated 2022)
